Values joined by “and” are separate entries in the source; they are usually repeats but may differ in a detail not shown here. Identical values can stand only once.
What was measured:
[1] = biological target: T1, human CAR ligand-binding domain (LBD) (Homo sapiens, UniProt Q14994); assay: TR-FRET CAR coactivator assay (LanthaScreen); format: biochemical
T1 construct: purchased ThermoFisher Scientific PV4836

human CAR variant 3 = biological target: T2, human CAR variant 3 (Homo sapiens, UniProt Q14994, DEL233-236); assay: CAR3 luciferase reporter assay (CYP2B6-luc) in HepG2 cells; format: cell-based
T2 construct: host or cells: HepG2
T2 sequence (Q14994 with tags, fused parts or gaps isoform Q14994-8 DEL233-236): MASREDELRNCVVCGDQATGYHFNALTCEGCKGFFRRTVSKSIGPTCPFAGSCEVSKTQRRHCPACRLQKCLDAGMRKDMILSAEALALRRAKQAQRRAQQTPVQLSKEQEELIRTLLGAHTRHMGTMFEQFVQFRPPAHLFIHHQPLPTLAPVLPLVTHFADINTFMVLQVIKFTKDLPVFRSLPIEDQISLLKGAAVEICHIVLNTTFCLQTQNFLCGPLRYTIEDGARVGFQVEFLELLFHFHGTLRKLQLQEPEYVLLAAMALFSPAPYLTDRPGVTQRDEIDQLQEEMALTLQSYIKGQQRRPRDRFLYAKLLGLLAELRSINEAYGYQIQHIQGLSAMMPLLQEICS
T2 sequence (P19793 1-462 partner): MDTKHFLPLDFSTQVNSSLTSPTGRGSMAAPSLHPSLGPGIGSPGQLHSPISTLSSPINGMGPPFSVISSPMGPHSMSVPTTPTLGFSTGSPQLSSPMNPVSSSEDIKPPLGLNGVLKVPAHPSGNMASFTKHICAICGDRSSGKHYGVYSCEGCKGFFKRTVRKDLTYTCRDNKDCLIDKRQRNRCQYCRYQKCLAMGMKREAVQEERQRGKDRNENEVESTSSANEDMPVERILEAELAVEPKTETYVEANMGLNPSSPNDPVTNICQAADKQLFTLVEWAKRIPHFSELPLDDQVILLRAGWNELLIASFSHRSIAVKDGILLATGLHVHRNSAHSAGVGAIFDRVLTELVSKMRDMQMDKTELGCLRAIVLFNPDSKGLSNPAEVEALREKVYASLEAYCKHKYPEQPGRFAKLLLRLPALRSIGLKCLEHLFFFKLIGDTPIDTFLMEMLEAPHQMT
Experimental: CAR3 luciferase reporter assay (with CYP2B6-luc) was performed in human hepatocellular carcinoma HepG2 cells as we described[19] For the CAR3 assay (Fig. 1d), a CYP2B6-luc reporter plasmid (originally entitled B-1.6k/PB/XREM) was kindly donated by Dr. Hongbing Wang (University of Maryland School of Pharmacy, Baltimore, MD, USA). All expression vectors are described in Supplementary, Chapter 4).
Cells were treated for 24 h with MI-883 in a range of concentration from 0.1 nM to 30 µM (n = 3). The half maximal effective concentration (EC50) to activate CAR or inhibit PXR (IC50) in the assays was calculated from at least eight points of the dose-response curves using the GraphPad Prism software.

HepaRG KO CAR cells = assay: RT-qPCR mRNA expression in HepaRG KO CAR cells; format: cell-based, human; conditions: Phenobarbital 500 μM, CITCO 1 μM, MI 883 1 μM; ctrl = 1
Excerpt: HepaRG cells from Biopredic (Rennes, France) were cultivated and differentiated on the 12-well plates. […] Several batches of HepaRG KO CAR (CAR Knockout HepaRG™ Cells, MTOX1012-1VL, RRID:CVCL_B6AA) and PXR Knockout HepaRG™ Cells, MTOX1011-1VL, RRID:CVCL_B6AS) cells have been obtained from Sigma-Aldrich/Merck (Darmstadt, Germany) and cultivated according to the provider’s protocols. […] Experiments with HepaRG KO PXR and HepaRG KO CAR cells have been performed in duplicates at least in two independent experiments.
(§3) RT-qPCR was used to examine gene expression in 2D and 3D PHH, HepaRG cells, or in mouse liver or intestine (ileum) samples as we have described before[60]–[62].
All qRT-qPCR experiments including Trizol reagent (Life Technologies) total RNA isolation, reverse-transcription using a random hexaprimer, and the MMLV Reverse Transcriptase Kit (ThermoFisher Scientific) we have described before^19. qPCR was performed using TaqMan Fast Advanced Master Mix with TaqMan probes (ThermoFisher Scientific). […] The delta-delta method was used for gene expression quantification normalized to at least two reference genes. Three technical replicates were used for each reaction considering the MIQE guidelines. Data are presented as fold induction to vehicle-treated cells/animals.

[2] = system: humanized PXR-CAR-CYP3A4/3A7 mice; assay: Hepatic induction study in humanized PXR-CAR-CYP3A4/3A7 mice (i.p.); format: in vivo, mouse; conditions: single agents i.p.: Rif 3×5 mg/kg, CITCO 10 mg/kg two doses, MI-883 10 mg/kg 3 days
Excerpt: In the induction experiments, […] was sampled from the gallbladder.

[3] = Mouse plasma protein binding; format: in vitro ADME
Excerpt: (§1) Plasma protein binding, and stability in human and mouse plasma have been tested as previously described.

[4] = Stability in mouse plasma; format: in vitro ADME; conditions: read-out: Stability in mouse plasma, t1/2
Excerpt: as §1

[5] = Metabolic stability in human liver S9 fraction; conditions: human, liver S9 fraction
Experimental: (§2) Shimadzu HPLC system including vacuum degasser, gradient pumps, reverse phase HPLC column, column oven, and autosampler with an API 4000 QTRAP mass spectrometer (Applied Biosystems/MDS Sciex (AB Sciex) with Turbo V ion source and TurboIonspray interface were used. The reference compound midazolam, which is metabolized both by phase I and phase II enzymes, was used. The elimination constant (kel), half-life (t1/2), and intrinsic clearance (Clint) were determined[19] (Table S1).
Supplementary Figure 1. […] Test compounds (1 μM, final DMSO concentration 1%) were incubated at 37 °C with shaking at 100 rpm. Four time points over 120 minutes have been analyzed. The reactions were stopped by adding 420 μL of acetonitrile-water mixture (90:10). Supernatants were analyzed by the HPLC system coupled with a tandem mass spectrometer. The percentage (in % of initial concertation) of the test compounds remaining after incubation in plasma and their half-lives (t1/2) were calculated. […] The stability of the compound was tested in human liver S9 fraction. Cofactors were used such as UDPGA (for glucuronidation), PAPS (for sulfation), and reduced glutathione (for conjugation of GSH). Compounds were tested in triplicate with or without NADPH. Propantheline and midazolam were used as unstable control compounds in the experiments. Data represent the means±S.D. from at least three independent samples.

[6] = Metabolic stability in mouse liver S9 fraction; conditions: male, CD-1, mouse, liver S9 fraction
Experimental: as §2

HepaRG cells = assay: RT-qPCR mRNA expression in differentiated HepaRG cells; conditions: Phenobarbital 500 μM, CITCO 1 μM, MI 883 1 μM; ctrl = 1
[7] = system: primary human hepatocytes (PHH); assay: RT-qPCR mRNA expression in 2D primary human hepatocytes
Excerpt: The cells were cultivated as 2D monolayers according to the manufacturer’s protocol.
as §3

GRα = GRα (Homo sapiens, UniProt P04150); assay: Luciferase reporter gene assay GRα, HepG2; conditions: ligand: Dexamethasone 100 nM
GRα, sequence (P04150 whole entry): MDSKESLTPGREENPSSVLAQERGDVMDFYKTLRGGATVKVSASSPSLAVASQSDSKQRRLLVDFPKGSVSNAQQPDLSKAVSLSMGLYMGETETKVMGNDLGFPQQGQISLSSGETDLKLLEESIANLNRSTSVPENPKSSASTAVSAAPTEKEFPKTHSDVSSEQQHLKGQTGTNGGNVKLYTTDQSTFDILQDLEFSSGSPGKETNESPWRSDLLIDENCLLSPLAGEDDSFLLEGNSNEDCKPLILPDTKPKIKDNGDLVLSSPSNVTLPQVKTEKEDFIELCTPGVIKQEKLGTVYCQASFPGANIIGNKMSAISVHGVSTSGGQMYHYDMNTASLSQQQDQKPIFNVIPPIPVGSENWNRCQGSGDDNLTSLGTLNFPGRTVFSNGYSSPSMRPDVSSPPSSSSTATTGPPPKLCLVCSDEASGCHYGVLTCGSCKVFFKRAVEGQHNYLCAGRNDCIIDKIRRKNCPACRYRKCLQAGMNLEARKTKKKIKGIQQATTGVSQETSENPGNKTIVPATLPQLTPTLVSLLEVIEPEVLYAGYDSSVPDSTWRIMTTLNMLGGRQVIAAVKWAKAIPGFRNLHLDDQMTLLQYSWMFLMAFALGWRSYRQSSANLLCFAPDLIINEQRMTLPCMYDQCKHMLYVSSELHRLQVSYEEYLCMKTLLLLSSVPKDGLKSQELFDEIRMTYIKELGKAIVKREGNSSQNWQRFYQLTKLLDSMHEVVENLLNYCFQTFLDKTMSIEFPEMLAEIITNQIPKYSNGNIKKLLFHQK
Excerpt: Gal4-LBD constructs of tested nuclear receptors have been used together with pGL4.31[luc2P/GAL4UAS/Hygro] luciferase reporter construct and pRL-TK Renilla expression vector (both from Promega, Hercules, USA) in HepG2 cells transfected with Lipofectamine 2000 or 3000 reagents. For GRα and FXR receptors, full-length expression vectors have been used with pGRE-luc or pFXRE-luc luciferase constructs. For the aryl hydrocarbon receptor (AhR), p1A1-luc construct was used with only pRL-TK vector for transfection normalization. A dual reporter assay (Promega, Hercules, USA) was used to analyze both firefly and Renilla luciferase activities.
Gal4-LBD constructs of tested nuclear receptors have been used together with pGL5-luc luciferase reporter construct and pRL-TK Renilla expression vector in HepG2 cells transfected with Lipofectamine 2000 or 3000 reagents. For GRα and FXR receptors, full-length expression vectors have been used with pGRE-luc or pFXRE-luc luciferase constructs. For the aryl hydrocarbon receptor (AhR), p1A1-luc construct was used with only pRL-TK vector for transfection normalization. […] Bars represent means±S.D. (n=3).

[8] = single agent 5 μM: MI-883, CITCO (5 μM) alone

T1 sequence (Q14994 109-348 isoform Q14994-2 limits assumed, other chains not shown): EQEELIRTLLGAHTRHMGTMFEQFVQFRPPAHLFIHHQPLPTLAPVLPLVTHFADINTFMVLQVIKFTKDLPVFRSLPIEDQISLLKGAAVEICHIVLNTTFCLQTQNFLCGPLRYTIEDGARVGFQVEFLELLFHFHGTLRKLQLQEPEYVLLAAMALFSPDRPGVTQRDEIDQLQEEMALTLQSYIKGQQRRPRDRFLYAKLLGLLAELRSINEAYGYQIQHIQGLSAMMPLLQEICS

Clc1ccc(-c2nc3sccn3c2C=NOCc2ccc(Cl)c(Cl)c2)cc1 [CITCO, 6-(4-chlorophenyl)imidazo[2,1-b][1,3]thiazole-5-carbaldehyde-O-(3,4-dichlorobenzyl)oxime, reference compound]
TR-FRET CAR Coactivator assay, mean signal (Fig. 1b) ([1]; 100pM): 1 | TR-FRET CAR Coactivator assay, mean signal (Fig. 1b) ([1]; 1nM): 1.176 | TR-FRET CAR Coactivator assay, mean signal (Fig. 1b) ([1]; 10nM): 1.375 | TR-FRET CAR Coactivator assay, mean signal (Fig. 1b) ([1]; 30nM): 1.960 | TR-FRET CAR Coactivator assay, mean signal (Fig. 1b) ([1]; 100nM): 2.115 | TR-FRET CAR Coactivator assay, mean signal (Fig. 1b) ([1]; 0.5μM): 2.111 | TR-FRET CAR Coactivator assay, mean signal (Fig. 1b) ([1]; 1 μM): 2.154 | TR-FRET CAR Coactivator assay, mean signal (Fig. 1b) ([1]; 10 μM): 2.134 | TR-FRET CAR Coactivator assay, mean signal (Fig. 1b) ([1]; 30 μM): 2.146 | CAR3 variant activation (Fig. 1d), replicates (human CAR variant 3; concentration 0.01 (unit not given), HepG2, 24 h): 0.85 and 0.95 and 1.03 | CAR3 variant activation (Fig. 1d), replicates (human CAR variant 3; concentration 0.1 (unit not given)): 0.4 and 1 and 3.5 | CAR3 variant activation (Fig. 1d), replicates (human CAR variant 3; concentration 1 (unit not given)): 1.25 and 6.4 and 1.2 | CAR3 variant activation (Fig. 1d), replicates (human CAR variant 3; concentration 10 (unit not given)): 10 and 12.8 and 12 | CAR3 variant activation (Fig. 1d), replicates (human CAR variant 3; concentration 30 (unit not given)): 20.7 and 11.1 and 15.3 | CYP2B6 mRNA, RT-qPCR, HepaRG KO CAR (Fig. 1f), replicates (HepaRG KO CAR cells): 1.15 and 1.05 and 0.84 | hepatic CYP3A4 mRNA, hPXR/hCAR/CYP3A4/7 mice (Fig. 3e), individual animals [2]: 3.5706 and 5.153 and 1.198 and 3.457 | hepatic Cyp2b10 mRNA, hPXR/hCAR/CYP3A4/7 mice (Fig. 3e), individual animals [2]: 6.356 and 6.521 and 7.777 and 9.457 | fraction unbound [3]: 0.02 | half-life [4]: > 120 min | half-life at 2 µM [5]: 22.5 min | microsomal CLint at 2 µM [5]: 15 µL/min/mg | half-life [6]: 39.2 min | microsomal CLint [6]: 9 µL/min/mg | CYP2B6 mRNA, RT-qPCR, HepaRG (Fig. 1f), replicates (HepaRG cells): 6.95 and 5.3 and 5.5 | CYP2B6 mRNA, RT-qPCR, PHH (Fig. 1g), replicates ([7]; 1 mM, ctrl = 1): 10.10 and 18.10 and 7.00 | CYP2B6 mRNA in PHH 2 donors (Fig. 3c) [7, 8]: 11.1246 and 12.1237 | CYP3A4 mRNA in PHH 2 donors (Fig. 3c) [7, 8]: 2.55 and 3.999

C[C@@H]1C[C@H]2[C@@H]3CCC4=CC(=O)C=C[C@]4(C)[C@@]3(F)[C@@H](O)C[C@]2(C)[C@@]1(O)C(=O)CO [Dexamethasone]
NRs assays: GRa (relative to ctrl, replicates) (GRα): 19.01 and 18.01 and 16.69

From PMC11802874, “The hypolipidemic effect of MI-883, the combined CAR agonist/ PXR antagonist, in diet-induced hypercholesterolemia model” (Nature Communications, 2025)
